Reference: a melting point compilation (Tetko et al.; mined from patent text by program, amines drawn as free bases though some values may be those of a salt)

melting point	Compound
200 to 201 °C	O=C(OCc1ccccc1)C1N2C(=O)C(NC(c3ccccc3)(c3ccccc3)c3ccccc3)C2SC12CCN(c1ccccc1)CC2 (stereo unspecified)
137 to 138 °C	CC(C#N)=C1CCN(c2ccc(N3CC(COc4ccon4)OC3=O)cc2F)CC1 (stereo unspecified)
178 to 179 °C	O=C(CCCc1ccccc1)NCc1ccc(C(=O)O)cc1
210 to 212 °C	CN(C)c1ccc2c(c1)C(=O)CC(c1ccccc1OCc1ccccc1)=N2
196 to 202 °C	COc1ccc(-c2csc(C(=O)Nc3cc4ccccc4cn3)n2)cc1OC
98 to 100 °C	O=C1C(=O)c2ccccc2C2=C1SCC(CN1CCC(O)CC1)O2 (stereo unspecified)
143 to 145 °C	COc1ccc(-c2nn(-c3ccc(C)cc3)c3ncccc23)cc1
210 to 212 °C	CC(C)(C)CC(=O)NC[C@H]1CN(c2ccc(N3CCC(=CC#N)CC3)c(F)c2)C(=O)O1
62 to 64 °C	COc1ccc(CCN(C)CCCN(C(C)C)S(=O)(=O)c2ccc(Cl)c(Cl)c2)cc1OC
105 to 109 °C	CCCCCCCCNC(=O)c1c(N)cc(Cl)cc1Cl
304 °C	CCOC(=O)CNC(=O)Nc1cnc(Nc2ccc(Cl)c(Cl)c2)nc1NC
71 to 73 °C	NC(=O)CNC(=O)c1cccc(-c2cc(F)cc3cc(Cc4cccc(C(F)(F)F)c4)sc23)c1
251 to 253 °C	CC(C)(C)c1ccc(C(=O)Nc2cn3cc(-c4cnco4)ccc3n2)cn1
131 to 136 °C	Cn1cnc(C(O)c2cc(Cl)cc3c2OC(C)(C)OC3)c1 (stereo unspecified)
190 to 192 °C	CCCc1nc2c(c(C)c(C)n3nnnc23)n1CC(C)(C)NS(C)(=O)=O
115 °C	O=c1oc2c(c(OCCN3CCOCC3)c1-c1ccccc1)CCCC2
73 to 77 °C	CC(C)CC(O)c1cccc(NC(=O)OCc2ccccc2)c1 (stereo unspecified)
98 to 99 °C	Nc1ccc2oc3c(c2c1)CCCCC3

melting point	Compound
85 to 86 °C	CC(C)c1ccc(C2c3cc(NCc4ccccc4)ccc3OC2(C)C)cc1 (stereo unspecified)
215 to 218 °C	O=C(O)c1cc(-n2c(-c3ccccc3)cc3c2-c2ccccc2CC3)ccc1O
144 to 145 °C	NC(=O)c1ccc(-c2cccc3cc(Cc4cccc(C(F)(F)F)c4)sc23)cn1
68 to 71 °C	CN(C(=O)CCC#Cc1ccccn1)c1ccccc1
222 to 224 °C	CCOC(=O)N1CCC(n2c(=O)[nH]c3ccc(C)cc32)CC1
255 to 260 °C	CS(=O)(=O)OCCn1c2ccc(O)cc2c2c3c(c(-c4c(Cl)cccc4Cl)cc21)C(=O)NC3=O
101 to 104 °C	Cn1c(Br)c(C#N)c(C(F)(F)F)c1Br
190 to 194 °C	CC(=O)NCC1CN(c2ccc(N3CCN(C=O)CC3)c(F)c2)C(=O)O1 (stereo unspecified)
103 to 104 °C	CCOC(=O)COc1cc2c(c(Cl)c1Cl)C(=O)C(CC#C[Si](C)(C)C)(c1ccc(Cl)cc1)C2 (stereo unspecified)
290 to 291 °C	CC1(C)OC(=O)Nc2ccc(-c3cncc(C#N)c3)cc21
278 to 280 °C	CCC(=O)c1cc(C#N)c(=O)[nH]c1C=CN(C)C
139 to 141 °C	COC(=O)CCc1ccc(-n2cnn(CCC3CCN(C(=O)OC(C)(C)C)CC3)c2=O)cc1
79 to 81.1 °C	COc1cc(OC)cc(-c2nc[nH]c2-c2ccc(N(C)C)cc2)c1
63 to 65 °C	CC(=O)c1ccc(OCC(O)COc2ccccc2)cc1O (stereo unspecified)
62 to 64 °C	COc1ccc(Oc2nccnc2Cl)cc1
130 to 132 °C	CCC(C)CNC(=O)c1cc(NC(=O)OCc2ccccc2)cc(C(=O)NCC(C)CC)c1 (stereo unspecified)
72.5 to 73.9 °C	CCCCCC(=O)NN

Continued, compound first:

Compound	melting point
CS(=O)(=O)c1ccc(-c2sc(C(F)(F)F)nc2-c2ccc(F)cc2)cc1	168 to 170 °C
CS(=O)(=O)C(=[N+]=[N-])C(=O)CCc1ccccc1	52.5 to 54 °C
C[C@H](O)[C@@H](O)[C@@H](O)C(=O)CO	158 to 160 °C
O=C(O)c1ccccc1Sc1cccc(OCc2ccc3ccccc3n2)c1	169 to 171 °C
COc1ccccc1[C@H](c1cccc2ccccc12)[C@@](C)(C#N)C(=O)N1CCN(c2cccc(Br)c2)CC1	180 to 182 °C
CCNC(=O)c1sc(I)cc1[Si](C)(C)C	85 to 88 °C
O=[N+]([O-])c1cc2nc(O)c(O)nc2c2scnc12	> 360 °C
C#Cc1cccc(NC(=O)C(Cl)Cl)c1	99 to 100 °C
O=C1c2ccccc2-c2c1[nH]c(=O)c1ccccc21	> 300 °C
O=C(O)CCCCCc1c([N+](=O)[O-])cc(O)c(O)c1[N+](=O)[O-]	120 to 127 °C
Nc1cccc(OCCN2CCCCC2)c1	115 °C
Fc1ccc(Cn2c(NC3CCN(CCc4ccccn4)CC3)nc3ccccc32)cc1	133 °C
COc1ccc(-c2ccc3[nH]c(=O)ccc3c2)cn1	248 to 252 °C
COc1ccnc(CSc2nc3c(C)c(OC(F)F)c(C)cc3[nH]2)c1OC	137 to 138 °C
C#CCN1C(=O)c2cccc3cccc(c23)C1=O	235 to 237 °C
C[C@@H](S[C@H]1CO[C@H](c2ccc(C(=O)Nc3nccs3)cc2)OC1)[C@](O)(Cn1cncn1)c1ccc(F)cc1F	108 °C
O=C1N=NC(=O)c2c1[nH]c1cc(I)ccc21	> 250 °C
Cc1onc2c1C(=O)N(C(C)(C)C)C2=O	48 to 50 °C

Compound	melting point
Cn1cc(C(=O)NCc2ccc(Cl)cc2)c(=O)c2cc(CCl)ccc21	241 to 242 °C
Cc1cccc(-c2nc(C(C)C)[nH]c2-c2cccc(-c3ccc(C(=O)N4CCS(=O)CC4)cc3)c2)n1	136 to 140 °C
CC(C)(C)OC(=O)CCc1ccnc(-c2nc(=O)c3ccc(F)cc3s2)c1	138 °C
N[C@@H](Cc1ccccc1)[C@@H](O)C[C@H](Cc1ccccc1)NC(=O)OCc1cncs1	61 to 63 °C
CCCCC(=N)NC(=S)Nc1ccc(Cl)cc1	164 to 166 °C
COC(=O)[C@@H](CC(C)C)NC(=O)C[C@H]1O[C@H](c2cccc(OC)c2OC)c2cc(Cl)ccc2N(CC(CO)(OC)OC)C1=O	110 to 111 °C
O=C(Nc1cc(C(F)(F)F)ccc1O)Nc1ccccc1C(F)(F)F	158 to 159 °C
CC(=O)C1=CC=C(C(C)(C)OO)C1	82 to 84 °C
CCCCN(CCCC)C(=O)N1CCc2ccc(S(=O)(=O)NC(=O)NC3CCCCC3)cc2CC1	118 to 120 °C
COc1ccc(C2Sc3cc(Cl)c(Cl)cc3N(CCN(C)C)C(=O)C2O)cc1 (stereo unspecified)	178 to 180 °C
CC(=O)NC[C@H]1CN(c2ccc3c(c2)CC(C)N3C(=O)OCc2ccccc2)C(=O)O1 (stereo partly specified)	170 to 175 °C
CCOC(=O)N1CCN(c2nc(C)nc3c2OCC(=O)N3CC(O)CO)CC1 (stereo unspecified)	146 to 148 °C
Nc1ccc(C#Cc2ccc(N3CCN4CCC3CC4)nn2)cc1	182 to 183 °C
CC(O)C#Cc1cc(F)c2ncc(C(=O)NCc3ccc(Cl)cc3)c(O)c2c1 (stereo unspecified)	232 to 234 °C
C[C@@H](Nc1ncnc2[nH]c(-c3ccc(CN4CCNCC4)cc3)cc12)c1ccccc1	240 to 242 °C
CS(=O)(=O)Nc1ccc(C(=O)CN(Cc2ccccc2)Cc2ccccc2)cc1	131 to 134 °C
Cc1ccc(S(=O)(=O)N2Cc3cscc3C2)cc1	125 to 127 °C
CC(=O)N(c1ncc(C(F)(F)F)cc1Cl)c1c([N+](=O)[O-])cc(C(F)(F)F)c(Cl)c1[N+](=O)[O-]	75 to 77 °C
